Where two headings read alike, the source gives them in different places.
Tests used:
[1] = target: Cav3.2 channel expressed in HEK293 cells (Homo sapiens, UniProt O95180); assay: T-type calcium channel cell-based FDSS Ca2+ flux
[2] = target: Cav3.3 (Homo sapiens, UniProt Q9P0X4); assay: Cav3.3 IonWorks Quattro population patch clamp electrophysiology; format: cell-based
[3] = tested on: 68 GPCRs, ion channels and transporters; assay: Ricerca Lead Profiling Screen; details: 10 μM; significant = inhibition of radio ligand binding > 50%
[4] = tested on: sodium channel site 2; assay: Ricerca Lead Profiling Screen, sodium channel site 2; format: binding; details: 10 μM
[5] = target: sigma 1 (Homo sapiens, UniProt Q99720); assay: Ricerca Lead Profiling Screen, sigma 1; format: binding; details: 10 μM
[6] = tested on: L-type calcium channels; assay: Ricerca Lead Profiling Screen, L-type calcium channel; format: binding; details: @10 μM
[7] = target: N-type calcium channels (Rattus norvegicus, UniProt Q02294); assay: Ricerca Lead Profiling Screen, N-type calcium channel; format: binding; details: read-out: % inhibition, N-type calcium channels
[8] = target: hERG (Homo sapiens, UniProt Q12809); assay: Ricerca Lead Profiling Screen, hERG; format: binding
[9] = Plasma-brain exposure profile PK study; format: in vivo; details: male, Sprague-Dawley, rat, intraperitoneal, 10 mg/kg
[10] = tested on: T-type calcium currents in STN neurons; assay: Brain slice voltage clamp, T-type calcium current in STN neurons; format: cell-based, rat
[11] = tested on: low threshold spike (LTS) in STN neurons; assay: Brain slice current clamp, low threshold spike; format: cell-based, rat; details: 3 uM with 0.5 uM TTX, n = 5; control 18.1 ± 2.2 mV
[12] = tested on: rebound burst activity in STN neurons; assay: Brain slice current clamp, rebound burst activity in STN neurons; format: cell-based, rat
[13] = tested on: haloperidol-induced catalepsy in rats; assay: Haloperidol-induced catalepsy; format: in vivo, rat; details: 1, 3, 10 and 30 mg/kg p.o.; haloperidol 0.75 mg/kg; comparable to A2A inhibitor 56.6 mg/kg p.o.
[14] = Brain and plasma concentrations across the catalepsy dose range; format: in vivo; details: rat
[15] = in vivo; details: male, Sprague-Dawley, rat, plasma, iv, 1 mg/kg
[16] = in vitro; details: rat, plasma, pH 7.4
[17] = in vitro; details: human, plasma, pH 7.4
[18] = in vitro; details: rat, liver microsomes, pH 7.4
[19] = in vitro; details: human, liver microsomes, pH 7.4
[20] = target: P450 2C9 (Homo sapiens, UniProt P11712); assay: P450 inhibition 2C9
[21] = target: T1, P450 1A2 (Homo sapiens, UniProt P05177); assay: P450 inhibition 1A2
T1 sequence (P05177 1-516): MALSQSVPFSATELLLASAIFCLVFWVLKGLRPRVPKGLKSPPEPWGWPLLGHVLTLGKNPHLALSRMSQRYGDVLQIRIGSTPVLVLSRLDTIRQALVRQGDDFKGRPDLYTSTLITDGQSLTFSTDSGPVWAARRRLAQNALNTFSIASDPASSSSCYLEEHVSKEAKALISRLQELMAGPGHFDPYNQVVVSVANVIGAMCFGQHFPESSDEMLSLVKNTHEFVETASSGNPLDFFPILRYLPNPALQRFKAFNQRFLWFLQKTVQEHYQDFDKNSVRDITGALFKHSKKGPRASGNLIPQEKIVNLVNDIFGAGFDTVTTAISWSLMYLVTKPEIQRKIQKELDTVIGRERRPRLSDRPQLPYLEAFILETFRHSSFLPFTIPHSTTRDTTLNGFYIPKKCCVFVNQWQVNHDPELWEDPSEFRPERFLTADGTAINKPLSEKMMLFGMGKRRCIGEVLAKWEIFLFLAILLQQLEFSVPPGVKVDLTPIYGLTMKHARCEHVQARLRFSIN

[22] = target: P450 2D6 (Homo sapiens, UniProt P10635); assay: P450 inhibition 2D6
[23] = Intrinsic clearance in rat liver microsomes; details: obtained from rat liver microsomes
[24] = no reference given; cited from earlier work
[25] = target: Cav3.2 (Homo sapiens, UniProt O95180); assay: Cav3.2 IonWorks Quattro population patch clamp electrophysiology; format: cell-based; details: Cav3 subtype not stated
[26] = read-out: IC50 in Ca2+ fluorescence assay, Cav3.2 HEK293, full CRC

Cav3.2 channel expressed in HEK293 cells, sequence (O95180 whole entry): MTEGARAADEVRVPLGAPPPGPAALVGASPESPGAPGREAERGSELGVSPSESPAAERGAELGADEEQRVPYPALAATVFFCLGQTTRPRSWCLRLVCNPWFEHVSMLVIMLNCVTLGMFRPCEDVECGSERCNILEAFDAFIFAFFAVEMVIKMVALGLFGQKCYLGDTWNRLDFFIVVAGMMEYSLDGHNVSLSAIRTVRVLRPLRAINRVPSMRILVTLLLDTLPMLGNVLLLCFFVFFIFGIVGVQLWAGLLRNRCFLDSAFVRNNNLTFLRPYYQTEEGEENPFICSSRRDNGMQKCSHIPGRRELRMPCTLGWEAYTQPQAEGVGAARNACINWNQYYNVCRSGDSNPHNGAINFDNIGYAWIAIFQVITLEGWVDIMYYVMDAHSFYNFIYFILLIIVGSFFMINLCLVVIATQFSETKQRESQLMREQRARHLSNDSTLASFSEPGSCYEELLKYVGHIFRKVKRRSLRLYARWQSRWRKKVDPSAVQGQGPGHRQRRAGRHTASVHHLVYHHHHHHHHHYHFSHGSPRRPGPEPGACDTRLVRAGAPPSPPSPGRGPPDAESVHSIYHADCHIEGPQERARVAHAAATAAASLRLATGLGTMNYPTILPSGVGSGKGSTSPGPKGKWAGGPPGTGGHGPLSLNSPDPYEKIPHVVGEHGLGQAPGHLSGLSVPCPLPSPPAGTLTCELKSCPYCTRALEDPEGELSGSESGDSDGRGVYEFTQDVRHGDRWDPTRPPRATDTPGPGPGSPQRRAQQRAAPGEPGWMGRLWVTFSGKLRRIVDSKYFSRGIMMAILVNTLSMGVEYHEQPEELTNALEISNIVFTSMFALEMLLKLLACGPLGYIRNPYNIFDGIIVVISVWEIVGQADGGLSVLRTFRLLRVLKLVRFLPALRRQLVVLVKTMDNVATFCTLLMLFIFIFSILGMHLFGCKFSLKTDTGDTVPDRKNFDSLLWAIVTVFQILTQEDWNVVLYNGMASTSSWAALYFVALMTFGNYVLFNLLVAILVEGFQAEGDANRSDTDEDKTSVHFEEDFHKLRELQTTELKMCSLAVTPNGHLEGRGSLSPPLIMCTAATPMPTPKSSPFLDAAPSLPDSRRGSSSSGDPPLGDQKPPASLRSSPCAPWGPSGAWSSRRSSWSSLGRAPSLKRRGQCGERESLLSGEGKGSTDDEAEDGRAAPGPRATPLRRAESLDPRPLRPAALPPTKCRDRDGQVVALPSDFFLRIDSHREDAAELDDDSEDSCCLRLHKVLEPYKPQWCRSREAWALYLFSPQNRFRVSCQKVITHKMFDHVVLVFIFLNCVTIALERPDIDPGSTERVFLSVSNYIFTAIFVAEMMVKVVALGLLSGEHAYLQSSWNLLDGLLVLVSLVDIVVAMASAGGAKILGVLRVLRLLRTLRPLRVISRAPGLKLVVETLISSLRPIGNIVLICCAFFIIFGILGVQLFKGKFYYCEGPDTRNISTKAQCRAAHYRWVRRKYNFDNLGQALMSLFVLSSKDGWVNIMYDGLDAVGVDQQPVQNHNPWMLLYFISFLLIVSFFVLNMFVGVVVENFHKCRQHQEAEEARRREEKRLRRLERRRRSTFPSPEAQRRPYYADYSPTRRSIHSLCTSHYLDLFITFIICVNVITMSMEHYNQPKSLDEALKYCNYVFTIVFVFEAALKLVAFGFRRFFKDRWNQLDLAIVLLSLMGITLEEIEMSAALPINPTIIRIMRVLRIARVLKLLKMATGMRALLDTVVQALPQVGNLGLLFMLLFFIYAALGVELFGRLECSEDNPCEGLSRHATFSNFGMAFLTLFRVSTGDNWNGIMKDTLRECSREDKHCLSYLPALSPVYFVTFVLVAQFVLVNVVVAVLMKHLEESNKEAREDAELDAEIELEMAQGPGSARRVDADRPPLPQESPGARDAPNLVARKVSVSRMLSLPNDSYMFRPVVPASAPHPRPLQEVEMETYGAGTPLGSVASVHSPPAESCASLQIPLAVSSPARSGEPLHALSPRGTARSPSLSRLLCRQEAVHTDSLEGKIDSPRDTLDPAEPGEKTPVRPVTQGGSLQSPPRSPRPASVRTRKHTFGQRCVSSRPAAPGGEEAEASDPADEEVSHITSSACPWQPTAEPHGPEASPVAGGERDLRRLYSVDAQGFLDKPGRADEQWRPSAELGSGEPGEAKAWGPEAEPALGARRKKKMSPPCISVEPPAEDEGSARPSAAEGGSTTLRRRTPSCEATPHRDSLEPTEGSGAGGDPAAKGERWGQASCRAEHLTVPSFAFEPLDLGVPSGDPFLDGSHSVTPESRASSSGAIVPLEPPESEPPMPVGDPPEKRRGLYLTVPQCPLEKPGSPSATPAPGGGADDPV
sigma 1, sequence (Q99720 whole entry): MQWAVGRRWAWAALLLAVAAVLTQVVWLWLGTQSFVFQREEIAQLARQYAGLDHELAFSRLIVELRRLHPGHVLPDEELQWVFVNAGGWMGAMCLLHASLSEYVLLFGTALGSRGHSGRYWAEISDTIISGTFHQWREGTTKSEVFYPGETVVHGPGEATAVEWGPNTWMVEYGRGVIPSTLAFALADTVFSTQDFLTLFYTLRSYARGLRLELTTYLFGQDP
P450 2C9, sequence (P11712 whole entry): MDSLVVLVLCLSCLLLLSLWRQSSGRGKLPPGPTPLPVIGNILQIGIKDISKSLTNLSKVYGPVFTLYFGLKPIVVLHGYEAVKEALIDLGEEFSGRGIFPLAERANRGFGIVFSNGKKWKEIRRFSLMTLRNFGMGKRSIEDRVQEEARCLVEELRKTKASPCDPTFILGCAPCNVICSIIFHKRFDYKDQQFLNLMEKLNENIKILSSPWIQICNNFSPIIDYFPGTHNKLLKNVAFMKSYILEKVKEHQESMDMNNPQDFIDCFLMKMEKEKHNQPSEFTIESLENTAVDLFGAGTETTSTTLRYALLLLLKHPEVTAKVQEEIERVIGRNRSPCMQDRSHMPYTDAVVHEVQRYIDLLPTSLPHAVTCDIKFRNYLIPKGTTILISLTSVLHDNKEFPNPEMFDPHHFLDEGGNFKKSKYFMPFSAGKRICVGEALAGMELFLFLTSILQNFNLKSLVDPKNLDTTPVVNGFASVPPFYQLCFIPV
Cav3.2, sequence (O95180 whole entry): as the sequence (O95180 whole entry) above
hERG, sequence (Q12809 whole entry): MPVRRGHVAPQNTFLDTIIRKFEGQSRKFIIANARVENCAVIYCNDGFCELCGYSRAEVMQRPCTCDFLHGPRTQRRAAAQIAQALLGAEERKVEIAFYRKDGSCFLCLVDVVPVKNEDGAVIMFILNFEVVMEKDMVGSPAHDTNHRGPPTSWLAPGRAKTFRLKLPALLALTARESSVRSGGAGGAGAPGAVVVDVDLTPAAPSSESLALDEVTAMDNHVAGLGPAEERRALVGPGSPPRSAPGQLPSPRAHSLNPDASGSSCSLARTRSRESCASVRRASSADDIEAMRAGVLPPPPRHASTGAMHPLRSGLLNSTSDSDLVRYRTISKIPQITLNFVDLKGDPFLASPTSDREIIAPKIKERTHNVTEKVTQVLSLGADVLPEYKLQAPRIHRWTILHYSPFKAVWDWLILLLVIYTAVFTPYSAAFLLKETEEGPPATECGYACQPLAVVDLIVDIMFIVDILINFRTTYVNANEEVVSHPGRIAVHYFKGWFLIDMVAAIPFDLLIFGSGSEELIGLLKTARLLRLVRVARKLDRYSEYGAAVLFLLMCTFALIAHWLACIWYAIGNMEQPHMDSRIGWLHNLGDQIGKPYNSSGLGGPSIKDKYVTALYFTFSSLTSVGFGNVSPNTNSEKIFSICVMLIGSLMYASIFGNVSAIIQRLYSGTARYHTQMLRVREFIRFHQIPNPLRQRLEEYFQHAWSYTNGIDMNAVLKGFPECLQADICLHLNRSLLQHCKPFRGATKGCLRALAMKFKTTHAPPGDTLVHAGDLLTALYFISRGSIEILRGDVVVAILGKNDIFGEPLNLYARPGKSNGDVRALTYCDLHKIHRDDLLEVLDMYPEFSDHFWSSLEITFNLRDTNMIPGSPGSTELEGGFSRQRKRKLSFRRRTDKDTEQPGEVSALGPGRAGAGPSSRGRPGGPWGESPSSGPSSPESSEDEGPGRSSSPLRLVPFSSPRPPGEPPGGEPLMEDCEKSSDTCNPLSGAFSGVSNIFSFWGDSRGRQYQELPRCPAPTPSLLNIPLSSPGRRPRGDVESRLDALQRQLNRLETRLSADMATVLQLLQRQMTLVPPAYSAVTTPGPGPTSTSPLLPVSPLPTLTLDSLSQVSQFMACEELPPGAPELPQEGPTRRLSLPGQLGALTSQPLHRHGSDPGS
P450 2D6, sequence (P10635 whole entry): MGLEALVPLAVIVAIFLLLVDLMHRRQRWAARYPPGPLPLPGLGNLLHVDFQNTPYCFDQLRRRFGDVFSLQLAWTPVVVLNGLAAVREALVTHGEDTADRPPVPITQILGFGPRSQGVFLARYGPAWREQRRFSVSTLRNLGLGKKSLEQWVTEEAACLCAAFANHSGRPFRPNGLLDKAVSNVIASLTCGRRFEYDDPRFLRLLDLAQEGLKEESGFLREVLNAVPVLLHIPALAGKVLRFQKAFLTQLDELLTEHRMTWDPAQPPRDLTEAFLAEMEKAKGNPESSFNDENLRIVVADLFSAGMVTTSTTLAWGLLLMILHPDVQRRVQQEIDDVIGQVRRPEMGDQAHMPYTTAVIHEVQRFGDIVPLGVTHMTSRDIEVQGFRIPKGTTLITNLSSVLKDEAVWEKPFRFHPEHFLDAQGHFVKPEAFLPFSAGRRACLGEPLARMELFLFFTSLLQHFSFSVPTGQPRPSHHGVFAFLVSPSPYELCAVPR

CC(C)(C)CCN1CCC[C@@H](NC(=O)COc2ccc(F)cc2Cl)C1 [CID45115614]
T-type Ca2+ channel inhibition, result in words ([1]; 3-amino piperidine library): devoid of activity

CC(C)(C)CCN1CC2C(CNC(=O)c3cc(Cl)cc(Cl)c3)C2C1 (stereo not shown) [ML218, 3,5-dichloro-N-((3-(3,3-dimethylbutyl)-3-azabicyclo[3.1.0]hexan-6-yl)methyl)benzamide]
IC50 [1]: 150 nM | IC50 [2]: 274 nM | Number of targets significantly bound in 68-assay panel [3]: only significantly bind two targets | Binding to sodium channel site 2 [4]: significantly bind | Binding to sigma 1 [5]: significantly bind | % inhibition, L-type calcium channels [6]: 17% | inhibition at 10 µM [7]: 49% | inhibition at 10 µM [8]: 48% | Kp [9]: 7.4 | T-currents, % of the control value ([10]; 3 uM, n = 7): 45.1 ± 5.1% | Reduction of T-type Ca2+ current ([10]; 3 μM, voltage clamp, bath application): ~ 45% | Amplitude of LTS [11]: 8.7 ± 2.1 mV | Depression of rebound burst activity ([12]; 3 μM, -100 pA followed by depolarizing current): > 60% | Number of rebound spikes ([12]; 3 uM, n = 6, control 16.0 ± 2.8 spikes/burst): 5.7 ± 0.5 spikes/burst | Reversal of haloperidol-induced catalepsy [13]: reversed cataleptic behavior | [brain] ([14]; 3 mg/kg p.o.): 1.66 µM | [plasma] ([14]; 3 mg/kg p.o.): 98 nM | [brain] ([14]; 10 mg/kg p.o.): 5.03 µM | [plasma] ([14]; 10 mg/kg p.o.): 282 nM | [brain] ([14]; 30 mg/kg p.o.): 17.7 µM | [plasma] ([14]; 30 mg/kg p.o.): 1200 nM | MRT [15]: ~7 h | clearance [15]: 56 mL/min/kg | half-life [15]: 7 h | fraction unbound at 4 h [16]: 0.091 | fraction unbound at 4 h [17]: 0.033 | CLint scaled at 1 μM [18]: 115 mL/min/kg | CLint scaled at 1 μM [19]: 12.7 mL/min/kg | IC50 [20]: > 30000 nM | IC50 [21]: 10800 nM | IC50 [22]: 1700 nM | predicted hepatic clearance CLHEP [23]: 43 mL/min/kg

COCC(=O)O[C@]1(CCN(C)CCCc2nc3ccccc3[nH]2)CCc2cc(F)ccc2[C@@H]1C(C)C [compound 3, mibefradil]
Penetration into CNS [24]: poor penetration into CNS

CC(C)(C)Cc1nnc(NC(=O)COc2ccc(Cl)cc2Cl)o1 [compound 18]
IC50 [1, 26]: 810 nM | Potency in patch EP relative to Ca2+ fluorescence, in words [25]: significant right-shift in potency

CC(C)(C)CCN1CCC[C@H](NC(=O)COc2ccc(F)cc2Cl)C1 [compound 23]
IC50 [1, 26]: 2400 nM
